From US11339142B2, “Di-substituted pyrazole compounds for the treatment of diseases” (FGH BIOTECH, INC., priority 2016, dated 2022) come the findings set out here.

As a reminder, the inhibition is the relative decrease from the control value, in per cent. A word on the IC50: it is the concentration at which inhibition is half-maximal.

The test system of one test is PCSK9 expression. The test can be described thus: Quantitative PCR (qPCR) inhibition assay, PCSK9 mRNA expression in Hep G2 cells. It counts as cell-based. The conditions noted are these: Homo sapiens, HepG2 cells, 24 hours incubation, mRNA by qPCR; for inhibition at 0.32 µM: 320 nM, read-out: PCSK9 Inhibition Percentage (%) at 320 nM. The protocol: Hep G2 cells were obtained from ATCC and grown in DMEM supplemented with 5% FBS in a 5% CO2 incubator at 37° C. For the assay the cells were plated in 24 well plates at a concentration of 100,000 cells/well in DMEM with 5% FBS. The compounds were serially diluted in DMSO from 0.1 to 20 mM and then diluted 1:1000 in growth medium. The medium was added to the cells in duplicate 24 hours after plating. After 24 hours of incubation the RNA was isolated from the cells using the illustra RNAspin Mini kit (GE Healthcare). For the quantitative PCR the RNA was analyzed using the Power SYBR® Green PCR Master Mix (Applied Biosystems) and gene specific primers. The reaction was run on a StepOnePlus Real-Time PCR System (Thermo Fisher Scientific) and the instrument software was used to determine the Ct values. The fold change of mRNA expression relative to the vehicle control was calculated. Primer sequence was as follows: PCSK9, 5′-[…]-3′/5′-[…]-3′.
(§1) All data for Biological Examples 1a and 1b were measured in HepG2 cells. % inhibition of SCD1 expression, % inhibition of PCSK9 expression, and PCSK9 IC50 data are provided in Table 1. NA means the compound was not active at the concentration tested.

A further test concerns SCD1 expression. The test can be described thus: Quantitative PCR (qPCR) inhibition assay, SCD1 mRNA expression in Hep G2 cells. The class given is cell-based. The conditions noted are these: Homo sapiens, HepG2 cells, 24 hours incubation, mRNA by qPCR, read-out: SCD1 Inhibition Percentage (%) at 1 μM. The protocol:
Hep G2 cells were obtained from ATCC and grown in DMEM supplemented with 10% FBS in a 5% CO2 incubator at 37° C. For the assay the cells were plated in 96 well plates at a concentration of 75,000 cells/well in DMEM with 5% FBS. The compounds were serially diluted in DMSO from 30 to 0.1 mM and then diluted 1:1000 in growth medium. The medium was added to the cells in duplicate 24 hours after plating. After 24 hours of incubation the RNA was isolated from the cells using the RNAqueous®-96 Total RNA Isolation Kit (Ambion). The eluted RNA was reverse transcribed using the Cells-to-Ct kit reverse transcriptase (Ambion). For the quantitative PCR the cDNA was analyzed using the Power SYBR® Green PCR Master Mix (Applied Biosystems) and gene specific primers. The reaction was run on an ABI7300 thermocycler and the instrument software was used to determine the Ct values. The fold change of mRNA expression relative to the vehicle control was calculated using the method by Livak. Primer sequence was as follows: SCD1, 5′-[…]-3′/5′-[…]-3′.
as §1

As for `CCCn1cc(-n2cc(-c3ccc(OCC(C)C)nc3C)cn2)ccc1=O` [Example 5], the inhibition at 0.32 µM in the test on PCSK9 expression is ≥ 40%. Besides, the inhibition at 1 µM in the test on SCD1 expression is ≥ 40%.
Take `CCCn1cc(-n2cc(-c3ccc(S(=O)(=O)C(C)C)cc3Cl)cn2)ccc1=O` [Example 17]: in the test on PCSK9 expression, the inhibition at 0.32 µM was ≥ 40% and the half-maximal inhibitory concentration (IC50) was in the range of 150 to 600 nM. The inhibition at 1 µM in the test with SCD1 expression is ≥ 40%.
As for `CCCn1cc(-n2cc(-c3ccc(OCC4CC4)nc3C)cn2)ccc1=O` [Example 6], in the test on PCSK9 expression, the inhibition at 0.32 µM fell in the range of 10 to 40% and the IC50 fell in the range of 150 to 600 nM. Moreover, in the test on SCD1 expression, the inhibition at 1 µM was ≥ 40%.
Take `CCCn1cc(-n2cc(-c3ccc(S(=O)(=O)C4CCC4)cc3Cl)cn2)ccc1=O` [Example 23]: the IC50 in the test on PCSK9 expression was ≤ 150 nM. Moreover, in the test with SCD1 expression, the inhibition at 1 µM is ≥ 40%.
Turning to `CCCn1cc(-n2cc(-c3ccc(O[C@H](C)CC)nc3C)cn2)ccc1=O` [Example 10], in the test with PCSK9 expression, the inhibition at 0.32 µM was ≥ 40%. Besides, in the test with SCD1 expression, the inhibition at 1 µM is ≥ 40%.
As for `CCCn1cc(-n2cc(-c3ccc(O[C@@H](C)CC)nc3C)cn2)ccc1=O` [Example 9], the inhibition at 0.32 µM in the test on PCSK9 expression was ≥ 40%. In addition, the inhibition at 1 µM with SCD1 expression was ≥ 40%.
For the compound `CCCn1cc(-n2cc(-c3ccc(S(=O)(=O)CC(C)C)cc3Cl)cn2)ccc1=O` [Example 18], the inhibition at 0.32 µM with PCSK9 expression lay in the range of 10 to 40%. The inhibition at 1 µM in the test with SCD1 expression lay within 10 to 40%.
Take `CCCn1cc(-n2cc(-c3ccc(OC(C)CC)nc3C)cn2)ccc1=O` (stereo not drawn) [Example 3]: the inhibition at 0.32 µM with PCSK9 expression was in the range of 10 to 40%. Besides, the inhibition at 1 µM in the test with SCD1 expression was ≥ 40%.
In the test on PCSK9 expression, `CCCn1cc(-n2cc(-c3ccc(S(=O)(=O)C4CCC4)cc3F)cn2)ccc1=O` [Example 22] returned an IC50 of 150 to 600 nM. Also, in the test with SCD1 expression, the inhibition at 1 µM is ≥ 40%.
Take `Cc1nc(OC2CCCC2)ccc1-c1cnn(-c2ccc(=O)n(CC(C)C)c2)c1` [Example 50, 5-(4-(6-(cyclopentyloxy)-2-methylpyridin-3-yl)-1H-pyrazol-1-yl)-1-isobutylpyridin-2(1H)-one]: the inhibition at 1 µM with SCD1 expression was ≥ 40%.
